“Also recorded” adds a separate entry of the source. {ppp} = triphosphate

What all share (type): cell-based, Mouse (C57BL/6)
Data set [1] has as its system neonatal cardiac fibroblasts. Description: qPCR of cardiomyocyte sarcomere (maturation) genes in miR combo reprogrammed fibroblasts. The settings on record: for cardiomyocyte maturation (expression of Actn2, Myh6, Tnni3, Cacna1c): miR combo or negmiR transfected, various concentrations of ICR for 4 days, gene expression at day 14. As to the method:
(§1) Mouse (C57BL/6) neonatal cardiac fibroblasts were isolated from 2 day old mouse neonates according to the method outlined in Jayawardena et al. Following isolation fibroblasts were cultured in growth media containing DMEM (ATCC, Catalogue number 30-2002) supplemented with 15% v/v FBS (Thermo Scientific Hyclone Fetal bovine serum, Catalogue number SH30071.03, Lot number AXK49952) and 1% v/v penicillin/streptomycin (Gibco, Catalogue number 15140-122, 100 units Penicillin, 100 ug/ml Streptomycin). Fibroblasts were passaged once the cells had reached 70-80% confluence using 0.05% w/v trypsin (Gibco, Catalogue number 25300-054). Freshly isolated fibroblasts were labelled as Passage 0. Experiments were conducted with cells at passage 2. For all experiments, cells were seeded at 5000 cells/cm^2 in growth media. After 24 hours, the cells were transfected with transfection reagent alone (Dharmafect-I, ThermoScientific), with transfection reagent plus non-targeting microRNAs (negmiR), or with transfection reagent plus our previously reported combination of cardiac reprogramming microRNAs[9] (miR combo, miR-1, miR-133, miR-208, miR-499).
qPCR: Total RNA was extracted using Quick-RNA MiniPrep Kit according to the manufacturer's instructions (Zymo Research). Total RNA (50 ng-100 ng) was converted to cDNA using a high capacity cDNA reverse transcription kit (Applied Biosystems). cDNA was used in a standard qPCR reaction involving FAM conjugated gene specific primers and TaqMan Gene Expression Master Mix (Applied Biosystems). The following primers were used for qPCR: Gapdh (Mm99999915_m1), Tnni3 (Mm00437164_m1), Actn2 (Mm00473657_m1), Myh6 (Mm00440359_m1), Cacna1c (Mm00437917_m1), Mef2C (Mm01340482_m1), Tbx5 (Mm00803518_m1), Gata4 (Mm00484689_m1) and Hand2 (Mm00439247 m1).

Data set [2] has as its system neonatal cardiac fibroblasts. Description: Generating beating reprogrammed cardiomyocytes (count of beating colonies). As to the method: Isolated mouse (C57BL/6) neonatal cardiac fibroblasts (passage 2) were seeded into 12-well dishes at […] in growth media. Twenty-four hours later growth media was removed and the cells transfected with negmiR or miR combo as described above. One day later, the transfection complexes were removed and media was replaced with a chemically defined reprogramming media[12] that contained 1 ug/ml Poly(I:C) (LMW). For the next four days, cells received fresh chemically defined reprogramming media containing 1 ug/ml Poly(I:C) (LMW) daily. After this period, the cells received chemically defined reprogramming media without Poly(I:C) (LMW) for a further 10 days. Media was replaced every other day. Beating colonies were identified with a Zeiss Axiovert 200 inverted microscope.

In data set [3] the test system is neonatal cardiac fibroblasts. Description: Actn2 (α-sarcomeric actinin) immunofluorescence of reprogrammed fibroblasts. The method, then: as §1
Cells were fixed with 2% v/v paraformaldehyde (EMS) as described previously. Fixed cells were blocked in antibody buffer (5% w/v BSA, 0.1% v/v Tween-20, in PBS) for 1 hr at room temperature. Following blocking, cells were incubated overnight at 4° C. with a-sarcomeric actinin antibody (Sigma, A7811, 1:100) in antibody buffer. After the overnight incubation, cells were washed three times in antibody buffer. Following washing, cells were incubated with Alexa-Fluor conjugated secondary antibodies (Invitrogen, Goat Anti-mouse 594 nm) at a 1:500 dilution in antibody buffer for 1 hr at room temperature. Nuclei were stained by DAPI at 1 μg/ml for 30 minutes at room temperature in antibody buffer. Following washing in PBS to remove unbound complexes, immunofluorescence was measured using a Zeiss Axiovert 200 inverted microscope.

For data set [4], the system named is neonatal cardiac fibroblasts. Description: qPCR of cardiomyocyte-lineage commitment factors (initiation phase of cardiac reprogramming). The settings on record: TLR3 agonist Poly(I:C) LMW for 3 days after transfection, FIGS. 2Bi-2Biv. The method, then: as §1
qPCR: Total RNA was extracted using Quick-RNA MiniPrep Kit according to the manufacturer's instructions (Zymo Research). […]
(In general: In qPCR the cycle at which signal appears reflects the starting amount.)

A further data set deals with T1, TLR3 (Mus musculus, UniProt Q99MB1).
T1 construct: neonatal cardiac fibroblasts were transfected with negmiR or miR combo; endogenous in cells; host or cells: mouse (C57BL/6) neonatal cardiac fibroblasts, passage 2
T1 sequence (Q99MB1 26-905): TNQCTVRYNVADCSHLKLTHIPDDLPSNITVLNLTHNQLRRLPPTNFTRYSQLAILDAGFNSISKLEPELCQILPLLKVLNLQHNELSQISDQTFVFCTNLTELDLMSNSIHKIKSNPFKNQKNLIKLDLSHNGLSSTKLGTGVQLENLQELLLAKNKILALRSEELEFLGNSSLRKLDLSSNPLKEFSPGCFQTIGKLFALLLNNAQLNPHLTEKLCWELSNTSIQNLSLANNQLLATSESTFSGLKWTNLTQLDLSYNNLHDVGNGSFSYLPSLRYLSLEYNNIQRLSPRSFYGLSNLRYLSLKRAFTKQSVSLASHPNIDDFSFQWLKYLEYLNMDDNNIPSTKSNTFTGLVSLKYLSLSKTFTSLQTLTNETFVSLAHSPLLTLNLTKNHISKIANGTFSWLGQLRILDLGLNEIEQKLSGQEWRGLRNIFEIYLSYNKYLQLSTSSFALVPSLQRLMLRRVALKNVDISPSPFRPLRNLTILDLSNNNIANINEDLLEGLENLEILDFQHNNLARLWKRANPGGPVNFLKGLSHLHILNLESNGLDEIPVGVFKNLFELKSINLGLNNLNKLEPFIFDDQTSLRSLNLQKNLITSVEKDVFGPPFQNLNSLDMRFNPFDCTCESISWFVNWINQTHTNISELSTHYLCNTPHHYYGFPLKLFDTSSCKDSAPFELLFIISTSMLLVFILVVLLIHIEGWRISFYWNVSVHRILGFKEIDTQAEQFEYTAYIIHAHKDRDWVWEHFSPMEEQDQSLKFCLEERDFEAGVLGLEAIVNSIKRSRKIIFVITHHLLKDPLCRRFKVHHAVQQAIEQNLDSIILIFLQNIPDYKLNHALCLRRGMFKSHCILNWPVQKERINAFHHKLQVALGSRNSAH
Description: IL6 ELISA: TLR3 activity measured as IL6 secretion into the media. The settings on record: CU-CPT-4a added one day post-transfection. As to the method:
IL6 ELISA kits were from R&D Systems. Fresh media (1 ml) was added to the cells one day prior to assaying for IL6. Per manufacturer's instructions 50 ul of media was assayed and the amount of IL6 in pg/ml in the culture media was determined via a standard curve. The IL6 pg/ml value was then adjusted for the total volume of the media (1 ml) and the total cellular protein in each well to correct for differences in cell number.
To test this further we transfected cells with microRNAs and assessed TLR3 activity by measuring IL6 secretion into the media. IL6 secretion is an accepted measurement of the activity of TLRs, including TLR3 [30-37]. […] Targeted knockdown of TLR3 or Ikbkb inhibited miR combo induced IL6 secretion; further validating that miR combo activated the TLR3-NFκB pathway (FIG. 6B).
(In general: ELISA stands for enzyme-linked immunosorbent assay.)

As to “ICR2: 2′F pyrimidine-incorporated 5′ppp RNA, blunt-ended hairpin, SEQ ID NO: 30: ggaug cggua ccuga cagca ucc (GGAUGCGGUACCUGACAGCAUCC; 2'-fluoro at CU, RNA at AG, 5' {ppp}, backbone not given here; blunt-ended hairpin)”, the “cardiomyocyte maturation (expression of Actn2, Myh6, Tnni3, Cacna1c)” value in data set [1] is given as “induced maturation; also recorded: activated cardiomyocyte maturation”.

Turning to Poly(I:C), in data set [2] (addition of Poly(I:C) (LMW) 1 ug/ml, colonies counted 14 days after transfection), the “increase of the ability of miR combo to form spontaneously beating colonies” value amounted to 3 fold. For the same compound, in data set [2] (miR combo plus Poly(I:C), time after transfection), the “time at which mature beating colonies were observed” value is on record as “within one week”. For the same compound, the “effect of miR combo upon Myh6, Actn2 and Tnni3 expression” value in data set [1] (Poly(I:C) LMW for 4 days after miR combo transfection, then 10 days growth media) is on record as “significantly enhanced”. Moreover, the “expression of Myh6, Actn2 and Tnni3 in the control negmiR samples” value in data set [1] (Poly(I:C) LMW for 4 days after negmiR transfection, then 10 days growth media) was “induced expression”. Further, in data set [3] (Poly(I:C) LMW for 4 days, FIG. 7C), the “number of Actn2(+) cells that formed in response to miR combo treatment” value was “increased”. Further, the sarcomere maturation result in data set [3] (miR combo plus Poly(I:C), inserts of FIGS. 7Bi-7Bvi) is “enhanced”. Besides, the “expression of cardiomyocyte-commitment factors Gata4, Hand2, Tbx5 and Mef2C” value in data set [4] was “no effect”.

Regarding “ICR4: 5′ppp 2′F ssRNA comprising multiple stem-loops, SEQ ID NO: 37: ggaug cggua ccuga cagca uccua aacuc auggu ccaug uuugu ccaug gacca (GGAUGCGGUACCUGACAGCAUCCUAAACUCAUGGUCCAUGUUUGUCCAUGGACCA; 2'-fluoro at CU, RNA at AG, 5' {ppp}, backbone not given here; single strand with multiple stem-loops)”, the “cardiomyocyte maturation (expression of Actn2, Myh6, Tnni3, Cacna1c)” value in data set [1] is recorded as “activated cardiomyocyte maturation”.

On to `O=C(N[C@H](Cc1ccccc1)C(=O)O)c1sc2cc(F)ccc2c1Cl` [CU-CPT-4a], for which, at TLR3, the “effect of negmiR and miR combo upon IL6 secretion” value was “completely ablated”. For the same compound, the “effect of miR combo upon cardiomyocyte sarcomere gene expression” value in data set [1] (CU-CPT-4a 10 μM for 4 days after miR combo transfection, then 6 days growth media) is reported as “completely abolished”. For the same compound, in data set [1] (CU-CPT-4a 10 μM for 4 days after transfection, then 10 days growth media, FIGS. 1Bi-1Biii), the “miR combo reprogramming with respect to the expression of Myh6, Actn2, and Tnni3” value was “completely inhibited”. Besides, the “ability of miR combo to generate mature cardiomyocytes with organized sarcomeres” value in data set [3] (CU-CPT-4a 10 μM, anti-Actn2 staining, FIGS. 1Ci-1Ciii) is recorded as “completely inhibited”.

The values are drawn from US11512290B2, “Compositions and methods for cellular reprogramming” (Duke University, priority 2018, dated 2022).
